Measurements from patent EP0260606A2, “Medicament for curing neurotic disturbance or disorder comprising sialocylglycerolipid” (MECT CORPORATION, priority 1986, dated 1988).
“And” between values parts separate entries of the source, which are not always exact repeats. Equal entries are not always repeated.

Columns and labels:
[1] = system: neuroblastoma cell Neuro2a; experiment: Effect on the neuroblastoma cell Neuro2a (formation and growth of axis-cylinder process); format: cell-based; settings: for Length of Axis-cylinder Process / Number of Axis-cylinder Process: average ± S.E.
Method: The nervous cell used in the test was neuroblastoma cell Neuro2a which is readily available and can be cultured in a relatively simple manner.
Neuro2a was floated on a culture medium containing fetal cattle serum (hereinafter referred to as FCS), the culture medium consisting of 90% of Dubecco's Modified Eagle's Medium (hereinafter referred to as MEM) and l0% of FCS and added with l00 U/ml of penicillin G and l00 µg/ml of streptomycin sulfate, and cultured in a carbon dioxide cultivator at 37°C in an air containing 5% of carbon dioxide. The containers used were 60 mm polystyrene dishes, and each of the containers was incubated with l to 2 × l0⁴ cells followed by culturing for 48 hours prior to the test. […] After the lapse of 24 hours and 48 hours, the increase in cells formed with axis-cylinder process, the increase in number of axis-cylinder processes and the elongation of the length of the axis-cylinder process were measured.
The test was conducted while using three dishes for each concentration of each test material.

[2] = system: rat having its nigral depaminergic neuron destroyed; experiment: Methamphethamine-induced rotational movement after 6-hydroxydopamine lesion and fetal dopaminergic cell transplantation; format: in vivo; settings: for Average of Rotational Movement of Rats (Average + S.D.): group average, 30 mg/kg; for Number of Rotational Movement of Rats: individual rat, 30 mg/kg every day for two weeks from transplantation, listed as Ganglioside GM1, 30 mg/kg
Source text: The nigral dopaminergic neuron of the brain of a rat was chemically destroyed by injecting a very small quantity of 6-hydroxydopamine to cause motor disturbance.
After the lapse of two weeks, a fetal brain dopaminergic cell was transplanted on the Nucleus caudatus of the rat brain to try to remedy the motor disturbance.
The nigral depaminergic neuron at the left side of the brain of a female Wister family rat aged 4-weeks (Body Weight: l00 g) was destroyed by injecting a very small quantity of 6-hydroxydopamine.
After two weeks from the destruction by the administration of the drug, portions of the […] containing dopamin cells (i.e. substantia nigra and the Tegmentum at the abdomen side) were extracted from the fetal rat brain of a fetal rat of l4 to l7 days age, cut finely, and treated with trypsin. Then, the extracted tissues were incubated at 37°C for 30 minutes, and the tissues were subjected to pipetting to form a suspension. 5 µl each of the suspensions were transplanted on two sites of the Nucleus caudatus of the destructed side, the total of l0 µl (containing about l0⁵ cells) being transplanted.
The rotational movements caused by administration of methamphethamine were examined at the time point before 2 weeks of the transplantation (- 2W), at the time point before one week of the transplantation (- lW) and at the time point after two weeks of the transplantation (2W). The number of rotational movements within one minute were counted at l0 minute intervals after six administrations of methamphethamine, and the total number of rotational movements counted for the six times was averaged to find the mean rotational movement. As controls, the numbers of rotational movements of the rats administered, respectively, with a ganglioside mixture and GM₁ ganglioside were counted.

[3] = - 1W (before transplantation and dosing)
[4] = - 2W (before transplantation and dosing)

In the case of “(NAcNeu(α2-8) NAcNeu(α2-3))-Gal(ßl-3)GalNAc(ßl-4)(NAcNeu(α2-8)NAcNeu(α-2-3))-Gal(ßl-4)Glc(ßl-l) [GQ1b]”, the “Number of Cells Formed with Axis-cylinder Process” value (shortened to “Number of Cells Formed”) ([1]; 24 hours, 0.01 µg/ml) is reported as 174, the “Ratio of Cells Formed with Axis-cylinder Process” value (from here on “Ratio of Cells Formed”) ([1]; 24 hours, 0.01 µg/ml) is reported as 51.8% and the “Total Number of Cells” value ([1]; 24 hours, 0.01 µg/ml) is reported as 336. The “Length of Axis-cylinder Process” value ([1]; 24 hours, 0.01 µg/ml) was 88.5 ± 5.00 µm/cell, the “Number of Axis-cylinder Process” value ([1]; 24 hours, 0.01 µg/ml) was 1.3 ± 0.05 per cell and the “Number of Cells Formed” value ([1]; 24 hours, 0.1 µg/ml) was 159. The “Ratio of Cells Formed” value ([1]; 24 hours, 0.1 µg/ml) was 58.0%, the “Total Number of Cells” value ([1]; 24 hours, 0.1 µg/ml) was 331 and the “Length of Axis-cylinder Process” value ([1]; 24 hours, 0.1 µg/ml) was 86.0 ± 4.72 µm/cell. The “Number of Axis-cylinder Process” value ([1]; 24 hours, 0.1 µg/ml) was 1.3 ± 0.04 per cell, the “Number of Cells Formed” value ([1]; 24 hours, 1 µg/ml) was 157 and the “Ratio of Cells Formed” value ([1]; 24 hours, 1 µg/ml) was 51.0%. The “Total Number of Cells” value ([1]; 24 hours, 1 µg/ml) was 308, the “Length of Axis-cylinder Process” value ([1]; 24 hours, 1 µg/ml) was 97.6 ± 4.95 µm/cell and the “Number of Axis-cylinder Process” value ([1]; 24 hours, 1 µg/ml) was 1.4 ± 0.05 per cell. The “Number of Cells Formed” value ([1]; 24 hours, 10 µg/ml) was 205, the “Ratio of Cells Formed” value ([1]; 24 hours, 10 µg/ml) was 63.9% and the “Total Number of Cells” value ([1]; 24 hours, 10 µg/ml) was 321. The “Length of Axis-cylinder Process” value ([1]; 24 hours, 10 µg/ml) was 114.9 ± 5.98 µm/cell, the “Number of Axis-cylinder Process” value ([1]; 24 hours, 10 µg/ml) was 1.3 ± 0.06 per cell and the “Number of Cells Formed” value ([1]; 24 hours, 100 µg/ml) was “U.C”. For the same substance, the “Total Number of Cells” value ([1]; 24 hours, 100 µg/ml) was “U.C”, the “Length of Axis-cylinder Process” value ([1]; 24 hours, 100 µg/ml) was “U.C” and the “Number of Axis-cylinder Process” value ([1]; 24 hours, 100 µg/ml) was “U.C”. For the same substance, the “Number of Cells Formed” value ([1]; 48 hours, 0.01 µg/ml) was 158, the “Ratio of Cells Formed” value ([1]; 48 hours, 0.01 µg/ml) was 42.6% and the “Total Number of Cells” value ([1]; 48 hours, 0.01 µg/ml) was 371. For the same substance, the “Length of Axis-cylinder Process” value ([1]; 48 hours, 0.01 µg/ml) was 100.4 ± 5.76 µm/cell, the “Number of Axis-cylinder Process” value ([1]; 48 hours, 0.01 µg/ml) was 1.5 ± 0.06 per cell and the “Number of Cells Formed” value ([1]; 48 hours, 0.1 µg/ml) was 153. For the same substance, the “Ratio of Cells Formed” value ([1]; 48 hours, 0.1 µg/ml) was 44.1%, the “Total Number of Cells” value ([1]; 48 hours, 0.1 µg/ml) was 347 and the “Length of Axis-cylinder Process” value ([1]; 48 hours, 0.1 µg/ml) was 90.4 ± 6.06 µm/cell. For the same substance, the “Number of Axis-cylinder Process” value ([1]; 48 hours, 0.1 µg/ml) was 1.2 ± 0.04 per cell, the “Number of Cells Formed” value ([1]; 48 hours, 1 µg/ml) was 182 and the “Ratio of Cells Formed” value ([1]; 48 hours, 1 µg/ml) was 47.4%. For the same substance, the “Total Number of Cells” value ([1]; 48 hours, 1 µg/ml) was 384, the “Length of Axis-cylinder Process” value ([1]; 48 hours, 1 µg/ml) was 106.5 ± 6.40 µm/cell and the “Number of Axis-cylinder Process” value ([1]; 48 hours, 1 µg/ml) was 1.3 ± 0.04 per cell. The “Number of Cells Formed” value ([1]; 48 hours, 10 µg/ml) was 214, the “Ratio of Cells Formed” value ([1]; 48 hours, 10 µg/ml) was 61.8% and the “Total Number of Cells” value ([1]; 48 hours, 10 µg/ml) was 346. For the same substance, the “Length of Axis-cylinder Process” value ([1]; 48 hours, 10 µg/ml) was 122.5 ± 6.99 µm/cell, the “Number of Axis-cylinder Process” value ([1]; 48 hours, 10 µg/ml) was 1.3 ± 0.04 per cell and the “Number of Cells Formed” value ([1]; 48 hours, 100 µg/ml) was “U.C”. For the same substance, the “Total Number of Cells” value ([1]; 48 hours, 100 µg/ml) was “U.C”, the “Length of Axis-cylinder Process” value ([1]; 48 hours, 100 µg/ml) was “U.C” and the “Number of Axis-cylinder Process” value ([1]; 48 hours, 100 µg/ml) was “U.C”.
For “Gal, (ßl-3) GalNAc (ßl-4) NAcNeu(α2-3))Gal(ßl-4)Glc(ßl-l)Ceramide [GM1]”, the “Average of Rotational Movement of Rats (Average + S.D.)” value (“Average of Rotational Movement of Rats” below) ([2]; 2W after transplantation) was 7.6+3.6, the “Average of Rotational Movement of Rats” value [2, 3] was 9.8+4.4 and the “Average of Rotational Movement of Rats” value [2, 4] was 9.0+4.1. For the same substance, the “Number of Rotational Movement of Rats” value ([2]; 2W after transplantation) was 3.7 and 10.9 and 8.2, the “Number of Rotational Movement of Rats” value [2, 3] was 14.8 and 6.9 and 7.6 and the “Number of Rotational Movement of Rats” value [2, 4] was 12.5 and 10.1 and 4.5. The “Number of Cells Formed” value ([1]; 24 hours, 0.01 µg/ml) was 145, the “Ratio of Cells Formed” value ([1]; 24 hours, 0.01 µg/ml) was 43.4% and the “Total Number of Cells” value ([1]; 24 hours, 0.01 µg/ml) was 334. For the same substance, the “Length of Axis-cylinder Process” value ([1]; 24 hours, 0.01 µg/ml) was 94.9 ± 6.64 µm/cell, the “Number of Axis-cylinder Process” value ([1]; 24 hours, 0.01 µg/ml) was 1.4 ± 0.05 per cell and the “Number of Cells Formed” value ([1]; 24 hours, 0.1 µg/ml) was 142. For the same substance, the “Ratio of Cells Formed” value ([1]; 24 hours, 0.1 µg/ml) was 47.8%, the “Total Number of Cells” value ([1]; 24 hours, 0.1 µg/ml) was 297 and the “Length of Axis-cylinder Process” value ([1]; 24 hours, 0.1 µg/ml) was 101.1 ± 5.09 µm/cell. For the same substance, the “Number of Axis-cylinder Process” value ([1]; 24 hours, 0.1 µg/ml) was 1.4 ± 0.06 per cell, the “Number of Cells Formed” value ([1]; 24 hours, 1 µg/ml) was 140 and the “Ratio of Cells Formed” value ([1]; 24 hours, 1 µg/ml) was 42.2%. For the same substance, the “Total Number of Cells” value ([1]; 24 hours, 1 µg/ml) was 332, the “Length of Axis-cylinder Process” value ([1]; 24 hours, 1 µg/ml) was 109.7 ± 6.44 µm/cell and the “Number of Axis-cylinder Process” value ([1]; 24 hours, 1 µg/ml) was 1.4 ± 0.06 per cell. For the same substance, the “Number of Cells Formed” value ([1]; 24 hours, 10 µg/ml) was 149, the “Ratio of Cells Formed” value ([1]; 24 hours, 10 µg/ml) was 45.8% and the “Total Number of Cells” value ([1]; 24 hours, 10 µg/ml) was 325. The “Length of Axis-cylinder Process” value ([1]; 24 hours, 10 µg/ml) was 89.3± 4.77 µm/cell, the “Number of Axis-cylinder Process” value ([1]; 24 hours, 10 µg/ml) was 1.4 ± 0.05 per cell and the “Number of Cells Formed” value ([1]; 24 hours, 100 µg/ml) was 172. The “Ratio of Cells Formed” value ([1]; 24 hours, 100 µg/ml) was 55.5%, the “Total Number of Cells” value ([1]; 24 hours, 100 µg/ml) was 310 and the “Length of Axis-cylinder Process” value ([1]; 24 hours, 100 µg/ml) was 90.5 ± 3.88 µm/cell. The “Number of Axis-cylinder Process” value ([1]; 24 hours, 100 µg/ml) was 1.8 ± 0.05 per cell, the “Number of Cells Formed” value ([1]; 48 hours, 0.01 µg/ml) was 194 and the “Ratio of Cells Formed” value ([1]; 48 hours, 0.01 µg/ml) was 58.3%. For the same substance, the “Total Number of Cells” value ([1]; 48 hours, 0.01 µg/ml) was 333, the “Length of Axis-cylinder Process” value ([1]; 48 hours, 0.01 µg/ml) was 93.7 ± 5.07 µm/cell and the “Number of Axis-cylinder Process” value ([1]; 48 hours, 0.01 µg/ml) was 1.4 ± 0.05 per cell. The “Number of Cells Formed” value ([1]; 48 hours, 0.1 µg/ml) was 156, the “Ratio of Cells Formed” value ([1]; 48 hours, 0.1 µg/ml) was 44.7% and the “Total Number of Cells” value ([1]; 48 hours, 0.1 µg/ml) was 349. The “Length of Axis-cylinder Process” value ([1]; 48 hours, 0.1 µg/ml) was 108.8 ± 5.97 µm/cell, the “Number of Axis-cylinder Process” value ([1]; 48 hours, 0.1 µg/ml) was 1.4 ± 0.06 per cell and the “Number of Cells Formed” value ([1]; 48 hours, 1 µg/ml) was 211. The “Ratio of Cells Formed” value ([1]; 48 hours, 1 µg/ml) was 59.9%, the “Total Number of Cells” value ([1]; 48 hours, 1 µg/ml) was 352 and the “Length of Axis-cylinder Process” value ([1]; 48 hours, 1 µg/ml) was 109.2 ± 6.09 µm/cell. For the same substance, the “Number of Axis-cylinder Process” value ([1]; 48 hours, 1 µg/ml) was 1.3 ± 0.04 per cell, the “Number of Cells Formed” value ([1]; 48 hours, 10 µg/ml) was 205 and the “Ratio of Cells Formed” value ([1]; 48 hours, 10 µg/ml) was 62.1%. For the same substance, the “Total Number of Cells” value ([1]; 48 hours, 10 µg/ml) was 330, the “Length of Axis-cylinder Process” value ([1]; 48 hours, 10 µg/ml) was 113.8 ± 5.49 µm/cell and the “Number of Axis-cylinder Process” value ([1]; 48 hours, 10 µg/ml) was 1.3 ± 0.04 per cell. The “Number of Cells Formed” value ([1]; 48 hours, 100 µg/ml) was 193, the “Ratio of Cells Formed” value ([1]; 48 hours, 100 µg/ml) was 60.9% and the “Total Number of Cells” value ([1]; 48 hours, 100 µg/ml) was 317. For the same substance, the “Length of Axis-cylinder Process” value ([1]; 48 hours, 100 µg/ml) was 98.9 ± 5.22 µm/cell and the “Number of Axis-cylinder Process” value ([1]; 48 hours, 100 µg/ml) was 1.5 ± 0.05 per cell.
